Results on five compounds are retold here after patent US20110092540A1, “SUBSTITUTED N-PHENYL-2,3-DIHYDROIMIDAZO[2,1-B]THIAZOLE-5-SULFONAMIDE DERIVATIVES AS 5-HT6 LIGANDS” (priority 2008, published 2011).

The target in test [1] is T1, 5HT6-human recombinant receptor (Homo sapiens, UniProt P50406). Description: Binding to serotonin receptor 5HT6 ([3H]-LSD radioligand displacement). Also noted: purchased Receptor Biology; host or cells: HEK-293 cells (membranes). The conditions noted are these: membranes of HEK-293 cells expressing 5HT6-human recombinant receptor; [3H]-LSD 2.7 nM; 60 min, 37° C. On the procedure: Binding to Serotonin Receptor 5HT6
Cell membranes of HEK-293 cells expressing the 5HT6-human recombinant receptor were supplied by Receptor Biology. In said membranes the receptor concentration is 2.18 pmol/mg protein and the protein concentration is 9.17 mg/ml. The experimental protocol follows the method of B. L. Roth et al. [B. L. Roth et al., The Journal of Pharmacology and Experimental Therapeutics, 1994, 268. 1403] with the following slight changes. The respective part of the literature description is hereby incorporated by reference and forms part of the disclosure.
The commercial membrane is diluted (1:40 dilution) with the binding buffer: 50 mM Tris-HCl, 10 mM MgCl2, 0.5 mM EDTA (pH 7.4). The radioligand used is [^3H]-LSD at a concentration of 2.7 nM with a final volume of 200 μl. incubation is initiated by adding 100 μl of membrane suspension, (≈22.9 μg membrane protein), and is prolonged for 60 minutes at a temperature of 37° C. The incubation is ended by fast filtration in a Brandel Cell Harvester through fiber glass filters made by Schleicher & Schuell GF 3362 pretreated with a solution of polyethylenimine at 0.5%. The filters are washed three times with three milliliters of buffer Tris-HCl 50 mM pH 7.4. The filters are transferred to flasks and 5 ml of Ecoscint H liquid scintillation cocktail are added to each flask. The flasks are allowed to reach equilibrium for several hours before counting with a Wallac Winspectral 1414 scintillation counter. Non-specific binding is determined in the presence of 100 μM of serotonin. Tests were made in triplicate. The inhibition constants (Ki, nM) were calculated by non-linear regression analysis using the program EBDA/LIGAND described in Munson and Rodbard, Analytical Biochemistry, 1980, 107, 220, which is hereby incorporated by reference and forms part of the disclosure.
(In general: Displacement assays read how much labelled ligand stays bound in the presence of the test substance.)

For test [2] the following is noted: in words; Fisas, A. et al., Brit. J. Pharm. 2006; cited from earlier work.
For test [3], the target named is T1, 5HT6-human recombinant receptor. The conditions noted are these: in words; Fisas, A. et al., Brit. J. Pharm. 2006; cited from earlier work.

Where a name gives a salt, the structure may show the parent alone.

T1 sequence (P50406 whole entry): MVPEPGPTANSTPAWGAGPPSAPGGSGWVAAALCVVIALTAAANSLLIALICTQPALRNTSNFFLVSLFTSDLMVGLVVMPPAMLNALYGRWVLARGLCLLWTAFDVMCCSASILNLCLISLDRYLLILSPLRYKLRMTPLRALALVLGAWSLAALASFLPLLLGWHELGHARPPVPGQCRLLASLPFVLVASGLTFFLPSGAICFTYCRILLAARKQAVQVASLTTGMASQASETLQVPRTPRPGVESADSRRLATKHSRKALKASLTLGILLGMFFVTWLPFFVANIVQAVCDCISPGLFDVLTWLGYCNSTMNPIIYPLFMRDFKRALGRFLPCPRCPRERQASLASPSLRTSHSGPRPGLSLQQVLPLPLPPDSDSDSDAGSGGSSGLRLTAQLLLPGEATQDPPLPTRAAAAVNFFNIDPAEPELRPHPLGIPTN

Regarding `O=S(=O)(Nc1ccc2c(c1)CCNC2)c1c(Cl)nc2n1CCS2` [Compound 1, 6-Chloro-2,3-dihydro-imidazo[2,1-b] thiazole-5-sulfonic acid (1,2,3,4-tetrahydro-isoquinolin-6-yl)-amide hydrochloride], in test [1], the Ki amounted to 8.4 nM.

As for `CC(=O)N1CCc2cc(NS(=O)(=O)c3c(Cl)nc4n3CCS4)ccc21` [Compound 4, 6-Chloro-2,3-dihydro-imidazo[2,1-b] thiazole-5-sulfonic acid (1-acetyl-2,3-dihydro-1H-indol-5-yl)-amide], the Ki in test [1] was 5.4 nM.

Consider `CN(C)CCc1c[nH]c2ccc(NS(=O)(=O)c3ccc4c(Cl)cccc4c3)cc12` [Compound E-6837, 5-chloro-N[3-(2-(dimethylamino)ethyl)-1H-indol-5-yl] naphthalene-2-sulphonamide], for which, in test [2], the body weight entry was “significant body weight loss” and the food intake entry was “reduction in the food intake”. Further, the “binding for the recombinant human 5-HT6 receptor” value in test [3] was “selective and high affinity binding”.

As for `CN(C)CCc1c[nH]c2ccc(NS(=O)(=O)c3c(Cl)nc4n3CCS4)cc12` [Compound 3, 6-Chloro-2,3-dihydro-imidazo[2,1-b] thiazole-5-sulfonic acid [3-(2-dimethylamino-ethyl)-1H-indol-5-yl]-amide hydrochloride], the inhibition constant (Ki) in test [1] was determined as 16.9 nM.

Take `O=C1CCc2ccc(NS(=O)(=O)c3c(Cl)nc4n3CCS4)cc21` [Compound 10, 6-Chloro-2,3-dihydro-imidazo[2,1-b] thiazole-5-sulfonic acid (3-oxo-indan-5-yl)-amide]: the Ki in test [1] stood at 46 nM.

One may read the Ki as a dissociation constant, usually derived from enzyme kinetics or from competition with a known ligand.
